Experimental data: patent US20070105181A1, “Identification of cancer biomarkers and phosphorylated pdroteins” (Invitrogen Corporation, priority 2005, published 2007)

System: Dok-2 phosphorylation (tyrosine 299)
Assay: SILAC/MALDI-TOF quantitation of Dok-2 phosphopeptide in CML cells after STI571 treatment
Assay type: cell-based
Settings: human CML cells
Procedure: SILAC is a also powerful tool for quantifying posttranslational modifications. We examined the change in the level of phosphophorylation of Dok-2 in response to treatment of STI571, an inhibitor of Bcr-Abl kinase, in human chronic myelogenous leukemia cells. As a control, aliquots of heavy tyrosine (U—^13C9) labeled cells (5×10^8) were mixed equally with light tyrosine (^12C) labeled cells (5×10^8) before the drug treatment.
A first aliquot of heavy tyrosine labeled cells (5×10^8) was preincubated with 1 μM of STI571 at 37° C. for 1 h and then mixed with an equal number of light (natural abundance) isotope tyrosine labeled cells. A second aliquot of heavy tyrosine labeled cells (5×10^8) was preincubated with 1 μM of STI571 at 37° C. for 2 h and then also mixed with an equal number of light (natural abundance) isotope tyrosine labeled cells. In both cases, the cell mixtures (1×10^9) were lysed with NP40 lysis buffer and incubated with 30 μg of the GST fusion of the SH2 domain of SHIP1 conjugated to glutathione Sepharose 4B. Affinity captured proteins were then analyzed by SDS-PAGE on a NuPAGE® acrylamide gel (Invitrogen, Carlsbad, Calif.) and stained with SimplyBlue™ SafeStain™ protein gel stain (Invitrogen, Carlsbad, Calif.). The Dok-2 protein bands from each mixed cell sample were excised and digested with trypsin. The resulting tryptic peptides were analyzed by MALDI-TOF.

Cc1ccc(NC(=O)c2ccc(CN3CCN(C)CC3)cc2)cc1Nc1nccc(-c2cccnc2)n1 [STI571]
amount of phosphopeptide of Dok2 reduced to (peptide ratio m/z 1688 to m/z 1697) (1 μM STI571, 37° C., 1 h): 75% | inhibition of heavy labeled Dok-2 phosphopeptide (ratio of isotopic peptide pairs) (1 μM STI571, 37° C., 2 h): more than 90% | decrease of phosphorylation level of Dok-2 Tyrosine 299 site (STI571 treatment, 1 h): 75%
